Measured values as given in patent US20210392890A1, “COMPOSITIONS COMPRISING PYRIDINE CARBOXYLATE HERBICIDES AND PLANT GROWTH REGULATORS” (Corteva Agriscience LLC, priority 2018, published 2021).
Values joined by “and” are separate entries in the source; they are usually repeats but may differ in a detail not shown here. Identical values can stand only once.

Assays:
Assay type in all cases: in vivo
[1] = system: Viola tricolor (wild pansy); assay: Greenhouse postemergence herbicidal effect on VIOTR
Excerpt: (§1) Seeds of the desired test plant species were planted in a 90:10% v/v (volume/volume) mixture of PRO-MIX® BX (Premier Tech Horticulture, Quakertown, Pa., USA) and PROFILE® GREENS GRADE™ (Profile Products LLC, Buffalo Grove, Ill., USA) planting mixture, which typically has a pH of 5.2 to 6.2 and an organic matter content of at least 50 percent, in plastic pots with a surface area of 103.2 square centimeters (cm^2). In some aspects, to help ensure good germination and healthy plants, a fungicide treatment and/or other chemical or physical treatment was applied. The plants were grown for 7-36 days (d) in a greenhouse with an approximate 14-hour (h) photoperiod which was maintained at about 23° C. during the day and 22° C. during the night. Nutrients and water were added on a regular basis and supplemental lighting was provided with overhead metal halide 1000-Watt lamps as necessary. The plants were employed for testing when they reached the second or third true leaf stage.
(§2) Emulsifiable concentrates of each of each pyridine carboxylate herbicide (Compound A or Compound B) were prepared at 100 grams acid equivalent per liter (g ae/L). The emulsifiable concentrates also included a safener, cloquintocet-mexyl, at 120 grams active ingredient per liter (g ai/L). An aliquot of each emulsifiable concentrate was placed in a 25 mL glass vial and diluted with an aqueous mixture of 1.25% (v/v) ACTIROB® B esterified rapeseed oil (Bayer Crop Science, Research Triangle Park, N.C., USA) or MSO® Concentrate with LECI-TECH® methylated soybean oil (Loveland Products, Loveland, Colo., USA) to obtain concentrated stock solutions at the highest application rate for each herbicide, based upon a 12 milliliter (mL) application volume at a rate of 187 liters per hectare (L/ha). The concentrated stock solutions were further diluted with an aqueous mixture of 1.25% v/v ACTIROB® B or MSO® Concentrate with LECI-TECH® to obtain stock solutions at reduced application rates for each herbicide. Spray solutions of the herbicide combinations (Compound A or Compound B plus the PGR) were prepared by adding weighed amounts or aliquots of the PGR to the stock solutions of Compound A or Compound B to form 12-mL spray solutions in two-way combinations.
(§3) The spray solutions were applied to the plant material with an overhead Mandel track sprayer equipped with 8002E nozzles calibrated to deliver 187 L/ha over an application area of 0.503 square meters (m^2) at a spray height of 18 inches (43 centimeters (cm)) above the average plant canopy. Control plants were sprayed in the same manner with the solvent blank. All pyridine carboxylate herbicide (component a) application rates are given as “g ae/ha” and all PGR (component b) application rates are given as “g ai/ha.”
(§4) The treated plants and control plants were placed in a greenhouse as described above and watered by sub-irrigation to prevent wash-off of the test compounds. After 20-22 d, the condition of the test plants as compared with that of the control plants was determined visually and scored on a scale of 0 to 100 percent where 0 corresponds to no injury and 100 corresponds to complete kill.

[2] = system: Polygonum convolvulus (wild buckwheat); assay: Greenhouse postemergence herbicidal effect on POLCO
Excerpt: as §1, §2, §3, §4

[3] = system: Cirsium arvense (Canada thistle); assay: Greenhouse postemergence herbicidal effect on CIRAR
Excerpt: as §1, §2, §3, §4

Glycine max (soybean) = assay: Greenhouse postemergence herbicidal effect on GLXMA
Excerpt: as §1, §2, §3, §4

[4] = system: Ipomoea hederacea (ivyleaf morningglory); assay: Greenhouse postemergence herbicidal effect on IPOHE
Excerpt: as §1
(§5) Emulsifiable concentrates of each of each pyridine carboxylate herbicide (Compound A or Compound B) were prepared at 100 grams acid equivalent per liter (g ae/L). The emulsifiable concentrates also included a safener, cloquintocet-mexyl, at 120 grams active ingredient per liter (g ai/L). […]
as §4

[5] = system: Amaranthus retroflexus (pigweed); assay: Greenhouse postemergence herbicidal effect on AMARE
Excerpt: as §1, §2, §3, §4

[6] = system: Helianthus annuus (common sunflower); assay: Greenhouse postemergence herbicidal effect on HELAN
Excerpt: as §1, §2, §3, §4

Kochia scoparia (kochia) = assay: Greenhouse postemergence herbicidal effect on KCHSC
Excerpt: as §1, §2, §3, §4

[7] = system: Stellaria media (chickweed); assay: Greenhouse postemergence herbicidal effect on STEME
Excerpt: as §1, §2, §3, §4

[8] = system: Brassica napus (spring rape); assay: Greenhouse postemergence herbicidal effect on BRSNN
Excerpt: as §1, §2, §3, §4

[9] = system: Setaria faberi (giant foxtail); assay: Greenhouse postemergence herbicidal effect on SETFA
Excerpt: as §1, §2, §3, §4

[10] = system: Chenopodium album L. (common lambsquarters); assay: Greenhouse postemergence herbicidal effect on CHEAL
Excerpt: as §1, §2, §3, §4

[11] = system: Abutilon theophrasti (velvetleaf); assay: Greenhouse postemergence herbicidal effect on ABUTH
Excerpt: as §1, §2, §3, §4

[12] = system: Euphorbia heterophylla (poinsettia); assay: Greenhouse postemergence herbicidal effect on EPHHL
Excerpt: as §1, §2, §3, §4

[13] = system: Sorghum vulgare (grain sorghum); details: Compound A 0 g/ha, Ethephon 140 g/ha
Excerpt: as §1, §2, §3, §4

Zea mays (maize) = details: Compound A 0 g/ha, Ethephon 140 g/ha
Excerpt: as §1, §2, §3, §4

[14] = system: Cyperus esculentus (yellow nutsedge); assay: Greenhouse postemergence herbicidal effect on CYPES; details: Compound A 0 g/ha, Ethephon 140 g/ha
Excerpt: as §1, §5
as §4, with “kill. […]” for “kill.”

[15] = system: Digitaria sanguinalis (large crabgrass); assay: Greenhouse postemergence herbicidal effect on DIGSA; details: Compound A 0 g/ha, Ethephon 140 g/ha
Excerpt: as §1, §5
as §4, with “kill. […]” for “kill.”

[16] = system: Echinochloa crus-galli (barnyard grass); assay: Greenhouse postemergence herbicidal effect on ECHCG; details: Compound A 0 g/ha, Ethephon 140 g/ha
Excerpt: as §1, §5
as §4, with “kill. […]” for “kill.”

[17] = system: Rumex obtusifolia (broadleaf dock); assay: Greenhouse postemergence herbicidal effect on RUMOB; details: Compound A 0 g/ha, Ethephon 140 g/ha
Excerpt: as §1, §5
as §4, with “kill. […]” for “kill.”

rice (ORYSA) = details: Compound A 0 g/ha, Ethephon 140 g/ha
Excerpt: as §1, §5
as §4, with “kill. […]” for “kill.”

[18] = Compound A 0 g/ha, Ethephon 140 g/ha

C[N+](C)(C)CCCl.[Cl-] [Chlormequat, Chlormequat chloride, reference compound]
10%: % visual injury Obs (Glycine max (soybean); PGR 560 g ai/ha alone)
0%: % visual injury Obs ([3]; PGR 560 g ai/ha alone) | % visual injury Obs ([4]; PGR 560 g ai/ha alone) | % visual injury Obs ([5]; PGR 560 g ai/ha alone) | % visual injury Obs ([6]; PGR 560 g ai/ha alone) | % visual injury Obs (Kochia scoparia (kochia); PGR 560 g ai/ha alone) | % visual injury Obs ([7]; PGR 560 g ai/ha alone) | % visual injury Obs ([8]; PGR 560 g ai/ha alone) | % visual injury Obs ([9]; PGR 560 g ai/ha alone) | % visual injury Obs ([10]; PGR 560 g ai/ha alone)
0% and 3%: % visual injury Obs ([1]; PGR 560 g ai/ha alone)
0% and 5%: % visual injury Obs ([2]; PGR 560 g ai/ha alone)

C#CCOC(=O)c1nc(-c2ccc3cc[nH]c3c2F)c(F)c(N)c1Cl [Compound B, propargyl 4-amino-3-chloro-5-fluoro-6-(7-fluoro-1H-indol-6-yl)pyridine-2-carboxylate]
93%: % visual injury Obs ([7]; herbicide 10 g ae/ha alone)
80%: % visual injury Obs ([2]; herbicide 10 g ae/ha alone) | % visual injury Obs (Kochia scoparia (kochia); herbicide 10 g ae/ha alone)
10%: % visual injury Obs ([1]; herbicide 7.5 g ae/ha alone) | % visual injury Obs ([7]; herbicide 7.5 g ae/ha alone)
83%: % visual injury Obs ([12]; herbicide 7.5 g ae/ha alone)
68%: % visual injury Obs ([11]; herbicide 7.5 g ae/ha alone) | % visual injury Obs ([11]; herbicide 10 g ae/ha alone) | % visual injury Obs (Kochia scoparia (kochia); herbicide 7.5 g ae/ha alone) | % visual injury Obs ([8]; herbicide 7.5 g ae/ha alone)
55%: % visual injury Obs ([9]; herbicide 10 g ae/ha alone)
99%: % visual injury Obs ([12]; herbicide 10 g ae/ha alone)
70%: % visual injury Obs ([9]; herbicide 7.5 g ae/ha alone)
85%: % visual injury Obs ([6]; herbicide 7.5 g ae/ha alone) | % visual injury Obs ([8]; herbicide 10 g ae/ha alone) | % visual injury Obs ([10]; herbicide 7.5 g ae/ha alone)
40%: % visual injury Obs ([1]; herbicide 10 g ae/ha alone)
73%: % visual injury Obs ([2]; herbicide 7.5 g ae/ha alone)
100%: % visual injury Obs ([6]; herbicide 10 g ae/ha alone)
90%: % visual injury Obs ([10]; herbicide 10 g ae/ha alone)
45%: % visual injury Obs ([3]; herbicide 7.5 g ae/ha alone) | % visual injury Obs ([3]; herbicide 10 g ae/ha alone)

O=P(O)(O)CCCl [Ethephon, reference compound]
0%: Herbicidal Effects (% visual injury) VIOTR Obs [1, 18] | Herbicidal Effects (% visual injury) ABUTH Obs [11, 18] | Herbicidal Effects (% visual injury) POLCO Obs [2, 18] | Herbicidal Effects (% visual injury) EPHHL Obs [12, 18] | Herbicidal Effects (% visual injury) CIRAR Obs [3, 18] | Herbicidal Effects (% visual injury) AMARE Obs [5, 18] | Herbicidal Effects (% visual injury) HELAN Obs [6, 18] | Herbicidal Effects (% visual injury) KCHSC Obs (Kochia scoparia (kochia); [18]) | Herbicidal Effects (% visual injury) SORVU Obs [13] | Herbicidal Effects (% visual injury) ZEAMX Obs (Zea mays (maize)) | Herbicidal Effects (% visual injury) STEME Obs [7, 18] | Herbicidal Effects (% visual injury) BRSNN Obs [8, 18] | Herbicidal Effects (% visual injury) SETFA Obs [9, 18] | Herbicidal Effects (% visual injury) CHEAL Obs [10, 18] | Herbicidal Effects (% visual injury) CYPES Obs [14] | Herbicidal Effects (% visual injury) DIGSA Obs [15] | Herbicidal Effects (% visual injury) ECHCG Obs [16] | Herbicidal Effects (% visual injury) RUMOB Obs [17] | Herbicidal Effects (% visual injury) ORYSA Obs (rice (ORYSA))

O=C(O)Cc1c[nH]c2ccccc12 [IAA, indol-3-ylacetic acid, reference compound]
0%: % visual injury Obs ([1]; PGR 140 g ai/ha alone) | % visual injury Obs ([11]; PGR 140 g ai/ha alone) | % visual injury Obs ([2]; PGR 140 g ai/ha alone) | % visual injury Obs ([3]; PGR 140 g ai/ha alone) | % visual injury Obs (Glycine max (soybean); PGR 140 g ai/ha alone) | % visual injury Obs ([4]; PGR 140 g ai/ha alone) | % visual injury Obs ([5]; PGR 140 g ai/ha alone) | % visual injury Obs ([6]; PGR 140 g ai/ha alone) | % visual injury Obs (Kochia scoparia (kochia); PGR 140 g ai/ha alone) | % visual injury Obs ([8]; PGR 140 g ai/ha alone) | % visual injury Obs ([9]; PGR 140 g ai/ha alone)
5%: % visual injury Obs ([7]; PGR 140 g ai/ha alone)

O=C(O)CCCc1c[nH]c2ccccc12 [IBA, indol-3-butyric acid, reference compound]
3%: % visual injury Obs ([1]; PGR 140 g ai/ha alone)
5%: % visual injury Obs ([9]; PGR 140 g ai/ha alone)
0%: % visual injury Obs ([11]; PGR 140 g ai/ha alone) | % visual injury Obs ([2]; PGR 140 g ai/ha alone) | % visual injury Obs ([3]; PGR 140 g ai/ha alone) | % visual injury Obs (Glycine max (soybean); PGR 140 g ai/ha alone) | % visual injury Obs ([4]; PGR 140 g ai/ha alone) | % visual injury Obs ([5]; PGR 140 g ai/ha alone) | % visual injury Obs ([6]; PGR 140 g ai/ha alone) | % visual injury Obs (Kochia scoparia (kochia); PGR 140 g ai/ha alone) | % visual injury Obs ([8]; PGR 140 g ai/ha alone)
8%: % visual injury Obs ([7]; PGR 140 g ai/ha alone)
